Values of other authors as cited in patent publication US6395294B1, “Method of visualization of the vitreous during vitrectomy” (priority 2000, dated 2002).
Like-named read-outs stand apart in the source and are kept apart here.

Columns and labels:
blood retinal barrier = details: intravitreal, experimental
[1] = primate eyes
[2] = human eyes
[3] = intravitreal, experimental
[4] = rabbit eyes
[5] = intravitreal injections
[6] = intravenous

C[C@@H]1C[C@H]2[C@@H]3CCC4=CC(=O)C=C[C@]4(C)[C@@]3(F)[C@@H](O)C[C@]2(C)[C@@]1(O)C(=O)COP(=O)(O)O [dexamethasone sodium phosphate]
retinal toxicity (dose of 2 mg): did not show retinal toxicity

CC1(C)O[C@@H]2C[C@H]3[C@@H]4CCC5=CC(=O)C=C[C@]5(C)[C@@]4(F)[C@@H](O)C[C@]3(C)[C@]2(C(=O)CO)O1 [triamcinolone, triamcinolone acetonide]
retinal toxicity (vitrectomized and nonvitrectomized eyes, dosage of 2-4 mg): no retinal toxicity
breakdown of the blood retinal barrier (blood retinal barrier): reduce the breakdown of the blood retinal barrier
tolerance in the eye [1]: well tolerated
tolerance in the eye [2]: well tolerated
angiogenesis [3]: inhibit angiogenesis
incidence of proliferative vitreoretinopathy and subsequent retinal detachment [3]: reduce the incidence of proliferative vitreoretinopathy and subsequent retinal detachment
preretinal and optic disc neovascularization [3]: inhibit preretinal and optic disc neovascularization
tolerance in the eye [4]: well tolerated

C[C@]12CCC(=O)C=C1CC[C@@H]1[C@@H]2[C@@H](O)C[C@@]2(C)[C@H]1CC[C@]2(O)C(=O)CO [hydrocortisone]
aqueous formation rate and outflow facility compared with saline injection [5]: no difference
intraocular pressure ([5]; both drug and saline groups, because of a decrease in outflow facility): increased intraocular pressure

C[C@H]1C[C@@H]2[C@H]([C@@H](O)C[C@@]3(C)[C@H]2CC[C@]3(O)C(=O)COC(=O)CCC(=O)[O-])[C@@]2(C)C=CC(=O)C=C12.[Na+] [solumedrol, methylprednisolone sodium succinate]
effect on diabetic eyes with rubeosis iridis [6]: quiets diabetic eyes with rubeosis iridis
